Assay results from US20230158015A1, “DRUG COMBINATIONS FOR INHIBITING INFLAMMATION AND SRC KINASE ACTIVATION FOLLOWING INVASIVE SURGICAL PROCEDURES” (SINTETICA S.A., priority 2020, published 2023).
Where two headings read alike, the source gives them in different places.

Legend:
[1] = system: receptor protein tyrosine phosphatase; details: human endothelial cells, independent of µ-opioid receptor expression; cited from earlier work
[2] = system: human pulmonary microvascular endothelial cell; details: with 5-FU and bevacizumab; cited from earlier work
p-Src / total Src [3] = assay: Total Src and p-Src expression in Panc1 human pancreatic cancer cell line (Western blot); format: cell-based; details: 10 µM lidocaine, 100 nM methylnaltrexone or both, time points up to 6 hours, fresh media
Protocol: (§1) • P-Src-Tyr416 (GeneTex # GTX81151) 1:2000 in 5% bovine serum albumin, at room temperature, 4 hours • Total Src (CST # 2108S) 1:3000 in 5% bovine serum albumin, at room temperature, 4 hours
Example 12 evaluated the effect of 10 µM lidocaine (L), 100 nM methylnaltrexone (M) and the combination of 10 µM lidocaine + 100 nM methylnaltrexone (L+M) on total Src and p-Src expression in a human pancreatic cancer cell line (Panc1) at multiple time points up to 6 hours, in fresh media. Experimental conditions were identical to Example 10.

p-Src / total Src [4] = assay: Total Src and p-Src expression in AsPc 1 human pancreatic cancer cell line (Western blot); format: cell-based
Protocol: (§2) Example 10 evaluated the effect of 10 µM lidocaine (L), 100 nM methylnaltrexone (M) and the combination of 10 µM lidocaine + 100 nM methylnaltrexone (L+M) for 1 hour on total Src and p-Src expression in a human pancreatic cancer cell line (AsPc 1).
as §1

p-Src / total Src [5] = assay: Total Src and p-Src expression in MiaPaCa 2 human pancreatic cancer cell line (Western blot); format: cell-based; details: 10 µM lidocaine, 100 nM methylnaltrexone or both, one hour
Protocol: as §1
as §2, with “Example 11” for “Example 10”, “line (MiaPaCa 2). Experimental conditions were identical to Example 10.” for “line (AsPc 1).”

[6] = system: LPS-induced serum inflammatory cytokines; assay: LPS-induced inflammation model, serum inflammatory cytokines (LEGENDplex, flow cytometry); format: in vivo, mouse; details: serum of treated mice
Protocol: (§3) C57BL/6J mice (6-8 weeks) were purchased from Charles River Laboratories (USA) and acclimatized for at least 1 week before use. All mice were housed in a pathogen-free facility. The mice received LPS for 24 hours. Following 24 hours, mice were treated either with lidocaine alone or methylnaltrexone alone or a combination of both, as shown in Table 1.
(§4) At the conclusion of the study, the blood and tissue samples were collected for further study. The serum was used to determine pro-inflammatory cytokines using the LEGENDplex™ mouse inflammation panel (BioLegend, USA) kit followed by flow cytometry. The lungs and spleen tissue samples were used for hematoxylin and eosin (H&E) staining and immunohistochemical analyses for immune cells, including macrophages and natural killer (NK) cells, B cells, T cells, and its subsets. For histopathology and immunohistochemistry (IHC), tissue samples were prepared by cutting 4-µm sections from the paraffin blocks. IHC staining was performed by methods described earlier. The images were captured using bright field microscopy (Nikon Microscope). Two independent investigators evaluated the H&E and all immunohistochemical staining. For slide scoring, each investigator assessed the tissues and gave a score of 0 (no expression) to 4+ (strong uniform expression) as described previously. The data were expressed either as the mean ± SD or mean ± SEM by using Graph Pad Prism software.
Gram-negative bacterial infections are the main cause of acute lung injury, and LPS, which is the main component of the Gram-negative bacteria cell wall, is the major stimulus for the release of inflammatory mediators. Therefore, we measured the effect of lidocaine alone, methylnaltrexone alone, or a combination of lidocaine and methylnaltrexone on LPS-induced serum inflammatory cytokines profiles. Mouse inflammatory cytokines were measured in serum of control and LPS-challenged mice treated with drugs as described in Table 1, using the LEGENDplex™ mouse inflammation panel (BioLegend, USA) kit followed by flow cytometry as per manufacturer’s specifications. […] However, serum tumor necrosis factor-alpha (TNF-α), monocyte chemoattractant protein 1 (MCP- 1), interleukin 10 (IL-10), interleukin 6 (IL-6), and interleukin 17A (IL-17A) levels were found decreased in mice challenged with LPS and treated with lidocaine and methylnaltrexone together (FIGS. 14C-G). IL-1, IL-6, IL-17A, MCP-1, and TNFα are pro- inflammatory cytokines associated with inflammatory signaling. Taken together, these findings indicate that combined treatment of lidocaine and methylnaltrexone has the potential to suppress inflammatory signaling.

[7] = system: LPS-challenged C57BL/6 mice; assay: LPS-induced inflammation model, H&E histopathology of lungs and spleen; format: in vivo, mouse
Protocol: as §3, §4

p-Src / total Src [8] = format: cell-based, mouse
Protocol: On day 1, mouse KPC-105 cells were cultured until 300,000 cells per well in a 6 well plate were obtained. On day 2, the cells were treated with 0, 0.5, 1,5, 10, 15, 30, 50 and 100 µM lidocaine for 30 minutes. Plates were then collected and washed with phosphate buffered saline and stored at -80° C. Cells were subsequently lysed with 100 µl of radioimmunoprecipitation assay buffer with protease and phosphatase buffers.
(§5) Protein estimation was done using a Bradford assay under the following conditions: • A Western Blot was stripped with 6 M guanidine hydrochloride after p-Src protein blocking to probe with total Src protein. • 10% SDS-PAGE 10 well Blocking: 5% bovine serum albumin for p-Src blot. • P-Src-Tyr416 (GeneTex GTX81151) Rb: 1:1000 in 5% bovine serum albumin, Overnight. • Total Src (Cell Signaling Technology 2108S ) Rb mAb 1:1000 overnight in 5% milk. • GAPDH (Invitrogen# AM4300) : 1:5000 in 5% milk overnight. • Wash: 4x for 5 minutes each with 1x TBST. • Developed using 50% femto for the p-Src protein and homemade ECL substrate for total Src and GAPDH protein.
Example 4 evaluated endogenous Src and p-Src in 10 µM lidocaine treated mouse KPC-105 cells at different time points.
Example 5 evaluated endogenous Src and p-Src in mouse KPC-105 cells treated with 10 10 µM lidocaine for different time points, and increasing doses of methylnaltrexone after one hour of incubation. Western Blot banding patterns were generated using 15 µg /lane (NP40 lysates) 10% SDS PAGE over a 6-hour duration (lidocaine) and a 1-hour duration (methylnaltrexone).
• P-Src-Tyr416 (GeneTex # GTX81151) Rb: 1:1000 in 5% bovine serum albumin o/n at 4° C. • 10 µg /lane (NP40 lysates) 10% SDS PAGE • Total Src (CST # 2108S ) Rb mAb 1:1000 in 5% bovine serum albumin o/n at 4° C.
• P-Src-Tyr416 (GeneTex # GTX81151) Rb: 1:1000 in 5% bovine serum albumin 3 hours at room temperature • 10 µg /lane (NP40 lysates) 10% SDS PAGE • Total Src (CST # 2108S ) Rb mAb 1:1000 in 5% bovine serum albumin 3 hours at room temperature
• P-Src-Tyr416 (GeneTex # GTX81151) 1:2000 in 5% bovine serum albumin, o/n at 4° C. • Total Src (CST # 2108S ) 1:3000 in 5% bovine serum albumin, o/n at 4° C. • Vinculin (ProteinTech) 1:4000 in 5% milk o/n at 4° C.
• P-Src-Tyr416 (GeneTex # GTX81151) 1:2000 in 5% bovine serum albumin, o/n at 4C • Total Src (CST # 2108S ) 1:3000 in 5% bovine serum albumin, o/n at 4C

[9] = system: immune cells in lungs and spleen of LPS-challenged mice; assay: LPS-induced inflammation model, IHC staining of immune cells in lungs and spleen; format: in vivo, mouse; details: lungs and spleen sections
Protocol: as §3
as §4, with “The data were expressed either as the mean ± SD or mean ± SEM by using Graph Pad Prism software.” left out

[10] = system: patients with advanced disease and cancer; details: regular clinical doses; cited from earlier work
Src protein [11] = assay: p-Src activation in TNF-α treated human pancreatic cancer cell line (Western blot); format: cell-based; details: TNF-α 20 ng/ml
Protocol: (§6) On day 1, KPC-105 mouse and human pancreatic cancer cell lines were cultured until 300,000 cells per well in a 6 well plate were obtained. On day 2, each cell line was treated with 20 ng/ml or mouse or human TNF-α for 2-hours. Cells were then collected and washed with phosphate buffered saline and stored at -80° C. Cells were then lysed with 100 µl of radioimmunoprecipitation assay buffer with protease and phosphatase buffers.
as §5, with “estimation was then performed using a” for “estimation was done using a”, “10% SDS-PAGE with 15 well Blocking:” for “10% SDS-PAGE 10 well Blocking:”, “for p-Src blot P-Src-Tyr416 (GeneTex” for “for p-Src blot. • P-Src-Tyr416 (GeneTex”, “overnight in 5 % milk. •” for “overnight in 5% milk. •”, “homemade ECL for total” for “homemade ECL substrate for total”

Src protein [12] = assay: p-Src activation in TNF-α treated KPC-105 mouse cell line (Western blot); format: cell-based; details: TNF-α 20 ng/ml
Protocol: as §6
as §5, with “estimation was then performed using a” for “estimation was done using a”, “10% SDS-PAGE with 15 well Blocking:” for “10% SDS-PAGE 10 well Blocking:”, “for p-Src blot P-Src-Tyr416 (GeneTex” for “for p-Src blot. • P-Src-Tyr416 (GeneTex”, “overnight in 5 % milk. •” for “overnight in 5% milk. •”, “homemade ECL for total” for “homemade ECL substrate for total”

[13] = Example 8, 10 µM lidocaine, 100 nM methylnaltrexone or both, different time points

Compound | receptor protein tyrosine phosphatase activity [1] | inhibition of VEGF-induced cell proliferation and migration [2] | p-Src (p-Src / total Src [3]) | Src after Src normalization (p-Src / total Src [4]; 100 nM methylnaltrexone exposure, preliminary results) | p-Src activity (p-Src / total Src [4]; 10 µM lidocaine, 100 nM methylnaltrexone or both, one hour) | p-Src (p-Src / total Src [5]) | serum interferon-gamma (IFNγ) level [6] | serum interleukin 1 alpha (IL-1α) level [6] | H&E staining, histopathology of lungs ([7]; LPS challenged mice, lungs) | histological examination of spleen ([7]; LPS challenged mice, spleen) | LPS-induced inflammation (overall conclusion) ([7]; mouse model, drug alone) | total Src (p-Src / total Src [8]; Example 5, 10 µM lidocaine over 6 hours, increasing doses of methylnaltrexone, 1 hour) | concentrations attenuating Src phosphorylation (p-Src / total Src [8]; Example 5, 1 hour incubation) | phosphorylation of Src (p-Src / total Src [8]; Example 6, 100 nM methylnaltrexone, different time points) | phosphorylation of Src (p-Src / total Src [8]; [13]) | total Src (p-Src / total Src [8]; [13]) | F4/80 positive area (macrophages) [9] | overall survival [10] | time of maximum activation of Src protein (Src protein [11]) | time of maximum activation of Src protein (Src protein [12])
C[N@+]1(CC2CC2)CC[C@]23c4c5ccc(O)c4O[C@H]2C(=O)CC[C@@]3(O)[C@H]1C5 [methylnaltrexone] | increased | synergistic effect | initially decreased p-Src at 30 minutes and 1 hour | no increase in Src | attenuated p-Src activity | attenuated p-Src | insignificant changes | insignificant changes | perivascular edema and accumulation of mixed cell infiltration within blood, and lymphatic vessels | increased number of erythrocytes in the red pulp, along with mild edema | partially mitigate | not affected | above 50 nM | attenuates phosphorylation of Src in KPC-105 cells starting at 2 hours | attenuated phosphorylation of Src after 1 hour of exposure | decreased total Src after 1 hour of exposure | partially decreased | increased overall survival | – | –
O=C1CC[C@@]2(O)[C@H]3Cc4ccc(O)c5c4[C@@]2(CCN3CC2CC2)[C@H]1O5 [naltrexone] | not | – | – | – | – | – | – | – | – | – | – | – | – | – | – | – | – | – | – | –
TNF-α | – | – | – | – | – | – | – | – | – | – | – | – | – | – | – | – | – | – | 45 min | 45 min
